Four molecules from patent US8871754B2, “Compounds and compositions for the treatment of parasitic diseases” (IRM LLC, priority 2012, dated 2014) can be followed below.

Each structure is given as a SMILES string.

Test [1] deals with P. falciparum (NF54 or 3D7 strain) in infected human erythrocytes. The test can be described thus: Assay for P. falciparum proliferation in infected human blood cells (SYBR Green). Type of test: cell-based. The conditions noted are these: Plasmodium falciparum, Erythrocyte; NF54 or 3D7 strain, 72 hours, SYBR Green fluorescence; read-out: EC50 (nM), inhibitory efficacy in delaying P. falciparum proliferation in infected human blood cells. Summed up: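 NF54 or 3D7 parasites in O+ human erythrocytes (final 2.5% hematocrit, 0.3% parasitemia) exposed to compound for 72 h at 37° C. under 3% O2. Cells then lysed overnight with SYBR Green I, and fluorescence read at excitation 425 nm / emission 530 nm to give EC50.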

Test [2] relates to P. yoelii sporozoites in HepG2-A16-CD81EGFP cells. The test can be described thus: P. yoelii sporozoite invasion assay (proliferation of parasite in infected liver cells, immunofluorescence). The conditions noted are these: Plasmodium yoelii, 48 hours, parasite area by immunofluorescence, read-out: EC50 (nM), inhibitory efficacy by the P. yoelii sporozoite invasion assay. Type of test: cell-based. An excerpt:
Assay for Profiferation of Parasite in Infected Liver Cells
Compounds of the invention can be assayed to measure their capacity to inhibit proliferation of parasites in liver cells. The proliferation is quantified by determine the number of infected cells by immunofluorescence.
Due to the difficulty of successfully infecting immortalized human liver cell lines with the human malaria sporozoites (liver-stage parasite), rodent malaria sporozoites from Plasmodium yoelii (17XNL) and P. berghei (ANKA) are the preferred surrogate. Sporozoites are obtained from Anopheles stephensi mosquitoes supplied by the New York University Insectary, which ships the malaria-infected mosquitoes 10-13 days following the ingestion of an infective blood meal.
A transgenic HepG2 cell line expressing the tetraspanin CD81 receptor (HepG2-A16-CD81^EGFP) is used to increase the infectivity rate of rodent-malaria sporozoites into human cells. HepG2-A16-CD81^EGFP cells are stably transformed to express a GFP-CD81 fusion protein. A continuous in vitro culture of this line was maintained at 37° C. in 4% CO2 in complete media (CM) which contains: DMEM (Invitrogen, Carlsbad, USA) supplemented with 10% FCS, 0.29 mg/ml glutamine, 100 units penicillin and 100 μg/ml streptomycin (SigmaAldrich, USA).
P. yoelii Sporozoite Invasion Assay
Twenty to twenty-six hours prior to sporozoite infection, 7.5×10^3 HepG2-A16-CD81^EGFP cells are seeded into 384-well plates (Aurora 384 IQ-EB black plates with clear bottoms; 50 μl of 1.5×10^5 cells/ml in CM). These plates are incubated at 37° C. with 4% CO2 overnight. Two hours prior to infection, 50 nl of compound dissolved in DMSO (0.1% final DMSO concentration per well) were transferred with a PinTool (GNF Systems) into the assay plates (10 μM final concentration). A 1:3 serial dilution of atovaquone (10 μM at the highest final concentration) and wells treated only with DMSO were used as positive and negative controls, respectively.
Freshly dissected salivary glands from infected mosquitoes were homogenized in a glass tissue grinder, filtered twice through Nylon cell strainers (40 μm pore size, BD Falcon) and counted using a hemocytometer. The assay plate with HepG2-A16-CD81^EGFP cells and compound were then infected with 8×10^3 sporozoitesper well and the plates are subjected to a centrifugal force of 650×g to pellet the sporozoites onto the liver cell monolayer. The assay plate is incubated at 37° C. for 2 hours to permit sporozoite invasion, then the media is aspirated from the media plate, and replaced with 50 μl CM (containing a 5× concentration of penicillin/streptomycin; 500 units penicillin and 0.5 mg streptomycin per ml) per well. 50 nl of compound is re-introduced by PinTool and the assay plate incubated for 48 hours at 37° C. before quantification of infected cells by immunofluorescence.
Atovaquone and uninfected wells were used as controls on each plate. Two replicate plates are tested for each assay.
Immunofluorescence Quantification of Exo-Erythrocytic Forms (EEFs)
After fixing the cells by addition of 12.5 μl of 20% solution of paraformaldehyde (EMS, Hatfield, USA) to each assay well (4% final formaldehyde concentration), membranes were permeabilized with 0.5% Triton-X-100 (Thermo Fisher Scientific) and EEFs were stained using a mouse polyclonal serum raised against the Plasmodium yoelii heat shock protein 70 (PyHSP70), a DyLight 649 goat anti-mouse IgG, Fc(gamma) fragment specific secondary antibody (Jackson Immuno Research, Cat#115-495-071) and the Hoechst 33342 nucleic acid dye (Invitrogen, Carlsbad, USA). Stained EEFs were then quantified using the Opera Confocal High Content Screening System (Perkin Elmer, Waltham, USA). Images were collected using a 20× objective lens (20×/0.45 NA, LWD Plan Fluor, Olympus) at a binning of 2, using a 365 nm Xeon arc lamp illumination to detect the Hoechst-labeled nuclei and 635 nm laser line to excite DyLight649-labeled parasites. […]

As for `CN(C(=O)c1ccn2ncc(-c3cnc4[nH]ccc4c3)c2c1)c1ccc(C#N)cc1` [Example 40, N-(4-cyanophenyl)-N-methyl-3-(1H-pyrrolo[2,3-b]pyridin-5-yl)pyrazolo[1,5-a]pyridine-5-carboxamide], the EC50 in test [1] was found to be 1 nM; in test [2] it was 63.1 nM.
Regarding `CNC(=O)c1ccc(-c2cnn3ccc(C(=O)N(C)c4ccc(C#N)cc4)cc23)cc1` [Example 67, N-(4-cyanophenyl)-N-methyl-3-(4-(methylcarbamoyl)phenyl)pyrazolo[1,5-a]pyridine-5-carboxamide], the EC50 in test [1] worked out at 5 nM; in test [2], 4.6 nM.
The like results for `CN(C(=O)c1ccn2ncc(-c3ccc(C(N)=O)cc3)c2c1)c1ccc(C#N)cn1` [Example 32, 3-(4-carbamoylphenyl)-N-(5-cyanopyridin-2-yl)-N-methylpyrazolo[1,5-a]pyridine-5-carboxamide] were, in that order, 1 nM and 8 nM.
Consider `CN(C(=O)c1ccc(C#N)cc1)c1ccn2ncc(-c3ccc(C(F)(F)F)cc3)c2c1` [Example 28, 4-cyano-N-methyl-N-(3-(4-(trifluoromethyl)phenyl)pyrazolo[1,5-a]pyridine-5-yl)benzamide], for which the EC50 in test [1] was found to be 7 nM; in test [2] it was 23.2 nM.
